Assay results as given in patent publication US11999758B2, “Inhibitors of the YAP/TAZ-TEAD interaction and their use in the treatment of cancer” (INVENTIVA, priority 2018, dated 2024).

How the values were obtained:
YAP-TEAD interaction = target: T1, YAP-TEAD interaction (Homo sapiens, UniProt P28347); experiment: Cell-based TEAD-GAL4 transactivation assay (luciferase reporter); conditions: HEK293 cells transfected with TEAD1-Gal4, YAP mutant (S127A, S397A) and luciferase reporter, compounds 0.1 μM to 30 μM; for Emax: HEK293, 24 h, read-out: TEAD-GAL4 Transactivation activity Max Act; for IC50: 24 h
T1 construct: expressed in transfected cells; host or cells: HEK293 GripTite 293 MSR (Invitrogen R795-07)
How it was run: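 HEK293 cells transiently transfected with Gal4-DBD–full-length human TEAD1, full-length YAP S127A/S397A (YAP/TEAD ratio 10) and a 5×GAL4-RE TK-luciferase reporter. Six hours later, compounds added semi-log from 0.1 to 30 μM (DMSO 0.5% control) for 24 h. Luciferase read; IC50 from 3-parameter fit.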

Met5A cell line = experiment: Cell proliferation in YAP-independent cell line (EdU); assay type: cell-based; conditions: FIG. 1 (▪)
Procedure: (§1) The tumor cell growth inhibitory activity of the YAP-TEAD interaction inhibitors was evaluated in NCI-H-2052 mesothelioma cell line harboring a NF2 mutation. This cell line was selected based on its mutational status and the ability of a siRNA directed against YAP, TAZ or TEAD1-4 to inhibit cell proliferation. The nuclear localization of YAP at confluence was also taken into account. Based on these observations we were able to classify several “YAP dependent cells” where YAP is clearly nuclear and in which a cell growth inhibition is observed by using siRNA (NCI-H-2052, SKOV-3, ACHN, A549) and the “YAP independent cells” where YAP is preferentially located in the cytoplasm and in which no inhibition of cell growth is observed by using a siRNA (SW620, Met-5a). […] After one day growth in the starvation medium, cells were incubated with compounds. The starting concentration was 30 μM and serial dilutions in DMSO and medium were performed until 0.1 μM to achieve a final DMSO concentration of 0.5%. The cells were then allowed to grow for 3 days, and then, EdU (Invitrogen, Molecular Probe) was added in each well at a final concentration of 10 μM and the cells were returned to the incubator for an additional 24 h. The starvation medium was removed and 100 μl of PFA 4% containing Hoechst dye was adding in each well to fix the cells. Plates were then incubated at rt for 15 min, washed twice with PBS and the cells were permeabilized by adding 100 μl per well of triton-100 containing 0.3% BSA. After 20 min, cells were washed with PBS and EdU detection was performed according to the instructions of the manufacturer. Image acquisition was performed using the ImageXpress Micro and analyzed using the MetaXpress software (Molecular Device). Results were expressed as a percent of inhibition (%) of the cell proliferation values obtained with 0.5% DMSO treatment alone. The cellular response was determined by fitting the concentration response curves using a 3 parameter curve fit equation and determining the concentration that inhibited cell growth between 50% and 100%.

[1] = system: NCI-H2052 mesothelioma cell; experiment: Inhibition of malignant mesothelioma tumor cell growth (EdU proliferation); assay type: cell-based; conditions: NF2 mutated cell line; FIG. 1 (x)
Procedure: as §1

T1 sequence (P28347 whole entry, the tested form may be a part): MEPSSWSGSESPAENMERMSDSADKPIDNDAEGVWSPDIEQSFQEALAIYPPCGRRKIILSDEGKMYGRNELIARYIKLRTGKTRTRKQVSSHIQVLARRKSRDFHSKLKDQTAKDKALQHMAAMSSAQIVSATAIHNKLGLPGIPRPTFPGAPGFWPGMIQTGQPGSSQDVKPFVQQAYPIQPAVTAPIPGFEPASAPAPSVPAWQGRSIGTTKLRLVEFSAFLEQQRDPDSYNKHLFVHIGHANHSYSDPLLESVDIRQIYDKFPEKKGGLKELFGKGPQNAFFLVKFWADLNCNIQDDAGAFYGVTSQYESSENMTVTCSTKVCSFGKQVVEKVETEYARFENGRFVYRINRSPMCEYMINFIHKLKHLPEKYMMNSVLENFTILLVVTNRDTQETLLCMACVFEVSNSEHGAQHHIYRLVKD

Q: What does the source list for `COc1cc(/C=N/N(C)c2ncnc3c(C)csc23)ccc1B(O)O` [Ex71, [2-methoxy-4-[(E)-[methyl-(7-methylthieno[3,2-d]pyrimidin-4-yl) hydrazono]methyl]phenyl]boronic acid]?
A: Emax (YAP-TEAD interaction): 68%; IC50 (YAP-TEAD interaction): 1140 nM; melting point: 237 to 267 °C

Q: With `CCN(/N=C/c1ccc2c(c1)COB2O)c1ncnc2nc(SC)sc12.Cl` [Ex83, N-ethyl-N-[(E)-(1-hydroxy-3H-2,1-benzoxaborol-5-yl)methyleneamino]-2-methylsulfanyl-thiazolo[4,5-d]pyrimidin-7-amine hydrochloride] as the compound, how does the Emax (YAP-TEAD interaction) read?
A: The Emax was 94%.

Q: What about the IC50 (YAP-TEAD interaction) of the same compound?
A: The IC50 was 230 nM.

Q: And the melting point?
A: The melting point was 248 to 264 °C.

Q: Which Emax (YAP-TEAD interaction) does the source give for `Cc1ccc2c(c1)S(=O)(=O)N=C2N(CC(C)C)/N=C/c1ccc2c(c1)COB2O` [Ex 31, N-[(E)-(1-hydroxy-3H-2,1-benzoxaborol-5-yl)methyleneamino]-N-isobutyl-6-methyl-1,1-dioxo-1,2-benzothiazol-3-amine] here?
A: The Emax was 90%.

Q: And the IC50 (YAP-TEAD interaction)?
A: Its IC50 is 4130 nM.

Q: And the melting point?
A: The melting point was 182 °C.

Q: With `COc1cc(/C=N/N(CC(C)C)c2ncnc3ccsc23)ccc1B(O)O` [Ex 20, [4-[(E)-[isobutyl(thieno[3,2-d]pyrimidin-4-yl)hydrazono]methyl]-2-methoxy-phenyl] boronic acid] as the compound, how does the Emax (YAP-TEAD interaction) read?
A: Its Emax is 87%.

Q: And the IC50 (YAP-TEAD interaction)?
A: Its IC50 is 1340 nM.

Q: What about the “effect in the Met5A cell line” value (Met5A cell line) of the same compound?
A: The value was “without showing any effect”.

Q: And the “NCI-H2052 mesothelioma cell proliferation” value [1]?
A: Its value is “inhibited”.

Q: For `COCCN(/N=C/c1ccc2c(c1)COB2O)c1ncnc2c(C)csc12` [Ex94, N-[(E)-(1-hydroxy-3H-2,1-benzoxaborol-5-yl)methyleneamino]-N-(2-methoxyethyl)-7-methyl-thieno[3,2-d]pyrimidin-4-amine], which Emax (YAP-TEAD interaction) is on record?
A: Its Emax is 80%.

Q: And the IC50 (YAP-TEAD interaction)?
A: Its IC50 is 460 nM.

Q: What about the melting point of the same compound?
A: Its melting point is 240 to 253 °C.

Q: Which Emax (YAP-TEAD interaction) does the source give for `Cc1csc2c(N3N=C(c4ccc5c(c4)COB5O)CCC3C)ncnc12` (stereo not drawn) [Ex118, 4-[6-(1-hydroxy-3H-2,1-benzoxaborol-5-yi)-3-methyl-4,5-dihydro-3H-pyridazin-2-yl]-7-methyl-thieno[3,2-d]pyrimidine] here?
A: Its Emax is 86%.

Q: What about the IC50 (YAP-TEAD interaction) of the same compound?
A: Its IC50 is 270 nM.

Q: And the “effect in the Met5A cell line” value (Met5A cell line)?
A: Its value is “without showing any effect”.

Q: And the “NCI-H2052 mesothelioma cell proliferation” value [1]?
A: Its value is “inhibited”.

Q: Which Emax (YAP-TEAD interaction) does the source give for `CCN(/N=C/c1ccc2c(c1)COB2O)c1ncnc2[nH]ccc12` [Ex 39, N-ethyl-N-[(E)-(1-hydroxy-3H-2,1-benzoxaborol-5-yl)methyleneamino]-7H-pyrrolo[2,3-d]pyrimidin-4-amine] here?
A: The Emax was 81%.

Q: And the IC50 (YAP-TEAD interaction)?
A: Its IC50 is 1200 nM.

Q: And the melting point?
A: Its melting point is 245 °C.

Q: With `CN(/N=C/c1ccc2c(c1)COB2O)c1ncnc2c1cnn2C` [Ex76, N-[(E)-(1-hydroxy-3H-2,1-benzoxaborol-5-yl)methyleneamino]-N,1-dimethyl-pyrazolo[3,4-d]pyrimidin-4-amine] as the compound, how does the Emax (YAP-TEAD interaction) read?
A: Its Emax is 86%.

Q: What about the IC50 (YAP-TEAD interaction) of the same compound?
A: Its IC50 is 960 nM.

Q: And the melting point?
A: Its melting point is 250 to 260 °C.

Q: Which Emax (YAP-TEAD interaction) does the source give for `Cc1csc2c(N(C)/N=C/c3ccc4c(c3)COB4O)ncnc12` [Ex77, N-[(E)-(1-hydroxy-3H-2,1-benzoxaborol-5-yl)methyleneamino]-N,7-dimethyl-thieno[3,2-d]pyrimidin-4-amine] here?
A: The Emax was 82%.

Q: What about the IC50 (YAP-TEAD interaction) of the same compound?
A: Its IC50 is 320 nM.

Q: And the melting point?
A: Its melting point is 231 °C.

Q: Which results are given for `CCN(/N=C/c1ccc2c(c1)COB2O)c1ncnc2occc12` [Ex 43, N-ethyl-N-[(E)-(1-hydroxy-3H-2,1-benzoxaborol-5-yl)methyleneamino]furo[2,3-d]pyrimidin-4-amine]?
A: Emax (YAP-TEAD interaction): 78%; IC50 (YAP-TEAD interaction): 420 nM; melting point: 225 °C

Q: Which Emax (YAP-TEAD interaction) does the source give for `CCN(/N=C/c1ccc2c(c1)COB2O)c1ncnc2nc(N(C)C)sc12` [Ex79, N7-ethyl-N7-[(E)-(1-hydroxy-3H-2,1-benzoxaborol-5-yl)methyleneamino]-N2,N2-dimethyl-thiazolo[4,5-d]pyrimidine-2,7-diamine] here?
A: Its Emax is 90%.

Q: And the IC50 (YAP-TEAD interaction)?
A: The IC50 was 1010 nM.

Q: What about the melting point of the same compound?
A: Its melting point is 247 to 253 °C.

Q: Which Emax (YAP-TEAD interaction) does the source give for `CCN(/N=C/c1ccc2c(c1)COB2O)c1ncnc2c(C)csc12` [Ex 42, N-ethyl-N-[(E)-(1-hydroxy-3H-2,1-benzoxaborol-5-yl)methyleneamino]-7-methyl-thieno[3,2-d]pyrimidin-4-amine] here?
A: Its Emax is 81%.

Q: What about the IC50 (YAP-TEAD interaction) of the same compound?
A: Its IC50 is 260 nM.

Q: And the “effect in the Met5A cell line” value (Met5A cell line)?
A: The value was “without showing any effect”.

Q: What about the “NCI-H2052 mesothelioma cell proliferation” value [1] of the same compound?
A: Its value is “inhibited”.

Q: Which results are given for `COc1cc(/C=N/N(CC(C)C)C2=NS(=O)(=O)c3ccccc32)ccc1B(O)O` [Ex 1, [4-[(E)-[(1,1-dioxo-1,2-benzothiazol-3-yl)-isobutyl-hydrazono]methyl]-2-methoxy-phenyl]boronic acid]?
A: Emax (YAP-TEAD interaction): 86%; IC50 (YAP-TEAD interaction): 7310 nM; effect in the Met5A cell line (Met5A cell line): without showing any effect; NCI-H2052 mesothelioma cell proliferation [1]: inhibited

Q: Which Emax (YAP-TEAD interaction) does the source give for `CN(/N=C/c1ccc2c(c1)COB2O)c1ncnc2c1[nH]c(=O)n2C12CC(C1)C2` [Ex110, 9-(3-bicyclo[1.1.1]pentanyl)-6-[[(E)-(1-hydroxy-3H-2,1-benzoxaborol-5-yl)methyleneamino]-methyl-amino]-7H-purin-8-one] here?
A: The Emax was 81%.

Q: What about the IC50 (YAP-TEAD interaction) of the same compound?
A: Its IC50 is 2410 nM.

Q: What about the melting point of the same compound?
A: The melting point was 259 to 270 °C.

Q: Which Emax (YAP-TEAD interaction) does the source give for `CSc1nc2ncnc(N(C)/N=C/c3ccc4c(c3)COB4O)c2s1` [Ex75, N-[(E)-(1-hydroxy-3H-2,1-benzoxaborol-5-yl)methyleneamino]-N-methyl-2-methylsulfanyl-thiazolo[4,5-d]pyrimidin-7-amine] here?
A: Its Emax is 94%.

Q: What about the IC50 (YAP-TEAD interaction) of the same compound?
A: The IC50 was 900 nM.

Q: What about the “effect in the Met5A cell line” value (Met5A cell line) of the same compound?
A: The value was “without showing any effect”.

Q: And the melting point?
A: Its melting point is 262 to 286 °C.

Q: And the “NCI-H2052 mesothelioma cell proliferation” value [1]?
A: The value was “inhibited”.

Q: Which results are given for `CCN(/N=C/c1ccc2c(c1)COB2O)c1ncnc2nc(N3CCOCC3)sc12` [Ex82, N-ethyl-N-[(E)-(1-hydroxy-3H-2,1-benzoxaborol-5-yl)methyleneamino]-2-morpholino-thiazolo[4,5-d]pyrimidin-7-amine]?
A: Emax (YAP-TEAD interaction): 89%; IC50 (YAP-TEAD interaction): 2370 nM; melting point: 183 to 189 °C

Q: Which results are given for `CN(/N=C/c1ccc2c(c1)COB2O)c1ncnc2c1[nH]c(=O)n2C` [Ex98, 6-[[(E)-(1-hydroxy-3H-2,1-benzoxaborol-5-yl)methyleneamino]-methyl-amino]-9-methyl-7H-purin-8-one]?
A: Emax (YAP-TEAD interaction): 86%; IC50 (YAP-TEAD interaction): 1310 nM; melting point: 180 to 200 °C

Q: What does the source list for `CSc1nc2ncnc(N(CC(C)C)/N=C/c3ccc4c(c3)COB4O)c2s1` [Ex92, N-[(E)-(1-hydroxy-3H-2,1-benzoxaborol-5-yl)methyleneamino]-N-isobutyl-2-methylsulfanyl-thiazolo[4,5-d]pyrimidin-7-amine]?
A: Emax (YAP-TEAD interaction): 91%; IC50 (YAP-TEAD interaction): 170 nM; melting point: 214 to 246 °C
